Molecular target: T1, human FFAR1 (GPR40) (Homo sapiens, UniProt O14842)
T1 construct: Flag; expressed in transfected cells; host or cells: HEK293T
Test: NFAT-RE-based reporter gene activity assay (Dual-Glo luciferase) for GPR40 agonistic activity in co-transfected HEK293T cells
Type: cell-based
Settings: 4-hour treatment
From the text: The pcDNA3.0-flag-FFAR1 (GPR40) plasmid was constructed using conventional molecular cloning methods. The main steps were as follows: The full-length cDNA sequence of human FFAR1 (GPR40) (NM_005303.3) was inserted into the HindIII and XbaI restriction sites of the pcDNA3.0 vector via PCR technology, resulting in the pcDNA3.0-flag-FFAR1 (GPR40) plasmid; pGL4.30 [luc2P NFAT-RE] (# E8481) and pRL-TK (#E2241) plasmids were both purchased from Promega; the plasmids were transformed into DH5α E. coli using the CaCl2 method, further cultured and amplified, and then purified using a plasmid extraction kit (TIANGEN, # DP117) to obtain the corresponding plasmid DNA.
HEK293T cells were seeded in a 96-well plate at a density of 1 × 10^4/well one day prior to plasmid transfection. Cell transfection was performed according to the instructions of the transfection reagent FuGENE® HD (Promega, # E2311). The main steps were as follows: Taking one well as an example, plasmids pcDNA3.0-flag-FFAR1 (GPR40), pGL4.30 [luc2P NFAT-RE], and pRL-TK were added at ratios of 50 ng, 50 ng, and 5 ng, respectively, into 10 µL of Opti-MEM™ I medium (Gibco, #11058021) and mixed thoroughly; then, 0.2 µL of FuGENE® HD was added, mixed thoroughly, and allowed to stand at room temperature for 5 minutes; finally, this 10 µL mixture was added to the cell well containing 100 µL of culture medium. 24 hours after co-transfection, the compounds were serially diluted at half-logarithmic intervals with 1 µM as the highest concentration, resulting in 10 concentration gradients, which were added to the cell culture medium for a 4-hour treatment.
After 4 hours of compound treatment, the cells were assayed according to the instructions of the Dual-Glo® Luciferase Assay System (Promega, # E2940). The main steps were as follows: 50 µL of culture medium was aspirated from each well and discarded, followed by the addition of 50 µL of Dual-Glo® Luciferase Reagent, and the mixture was shaken at room temperature for 10 minutes. Then, 80 µL of the lysate reaction solution was transferred to a white opaque optiPlate-96 well plate, and the luminescence signal of Firefly luciferase (Firefly-Luc) was measured using an MD i3x multifunctional microplate reader. Subsequently, 40 µL of Dual-Glo® Stop & Glo® Reagent was added, and the mixture was shaken at room temperature for 10 minutes. Finally, the luminescence signal of Renilla luciferase (Renilla-Luc) was measured using the MD i3x multifunctional microplate reader. The ratio of Firefly-Luc/Renilla-Luc was used as the compound's agonistic activity toward GPR40, and normalization was performed using the ratio of the solvent DMSO group. A dose-response curve was fitted using a four-parameter model with GraphPad Prism 8.0 software to calculate the EC50 value.

T1 sequence (O14842 whole entry): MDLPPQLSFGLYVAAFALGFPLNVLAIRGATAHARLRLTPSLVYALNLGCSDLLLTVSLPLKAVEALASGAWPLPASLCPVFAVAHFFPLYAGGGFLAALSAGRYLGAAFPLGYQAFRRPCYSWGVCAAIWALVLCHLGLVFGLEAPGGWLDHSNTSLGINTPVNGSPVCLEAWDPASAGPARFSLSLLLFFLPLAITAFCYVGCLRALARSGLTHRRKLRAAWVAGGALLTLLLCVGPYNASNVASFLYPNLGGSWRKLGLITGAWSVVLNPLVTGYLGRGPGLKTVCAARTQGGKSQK

Efficacy (%) (numeric values of positive controls)	Structure (SMILES)	EC50 [nM]	Efficacy (%) (class symbols)
	COc1ccc(F)c(N2CCC(c3oc4cc([C@@H](CC(=O)O)C5CC5)ccc4c3-c3ccc(C(C)OC)cc3)CC2)c1 (some centres unmarked) [Compound 176]	100 to 500	†† (150 ≥ Efficacy (%) > 100)
	COc1cccc(N2CCC(c3oc4cc(C(CC(=O)O)C5CC5)ccc4c3-c3csc(C)c3)CC2)c1 (centres unmarked) [Compound 35]	100 to 500	†† (150 ≥ Efficacy (%) > 100)
	COc1cccc(N2CCC(c3oc4cc([C@@H](CC(=O)O)C5CC5)ccc4c3-c3nnc(C(C)(C)C(F)(F)F)o3)CC2)c1 [Compound 49]	≤ 10	†† (150 ≥ Efficacy (%) > 100)
	COc1ccc(C(=O)N(C)c2ccccc2)c(N2CCC(c3oc4cc([C@@H](CC(=O)O)C5CC5)ccc4c3-c3cnn(C(C)(C)C)c3)CC2)c1 [Compound 93]	100 to 500	††† (Efficacy (%) > 150)
	COc1cccc(N2CCC(c3oc4cc(CC(C)C(=O)O)ccc4c3-c3cnn(C(C)(C)C)c3)CC2)c1 (centres unmarked) [Compound 60]	100 to 500	†† (150 ≥ Efficacy (%) > 100)
	COc1cccc(N2CCC(c3oc4cc(C(CC(=O)O)C5CC5)ccc4c3-c3cnn(C(C)(C)CF)c3)CC2)c1 (centres unmarked) [Compound 47]	100 to 500	†† (150 ≥ Efficacy (%) > 100)
	CCC(C)(C)c1nnc(-c2c(C3CCN(c4cccc(OC)c4)CC3)oc3cc(C(CC(=O)O)C4CC4)ccc23)o1 (centres unmarked) [Compound 128]	10 to 100	†† (150 ≥ Efficacy (%) > 100)
	COCC(C)(C)n1cc(-c2c(C3CCN(c4cccc(OC)c4)CC3)oc3cc(C(CC(=O)O)C4CC4)ccc23)cn1 (centres unmarked) [Compound 48]	100 to 500	†† (150 ≥ Efficacy (%) > 100)
	COc1cccc(N2CCC(c3oc4cc([C@@H](CC(=O)O)C5CC5)ccc4c3C(=O)Nc3cccc(C)c3)CC2)c1 [Compound 242]	100 to 500	†† (150 ≥ Efficacy (%) > 100)
	COc1cccc(N2CCC(c3oc4cc([C@@H](CC(=O)O)C5CC5)ccc4c3-c3cc(C(C)(C)C)no3)CC2)c1 [Compound 116]	≤ 10	†† (150 ≥ Efficacy (%) > 100)
	CCC(C)COC(C)c1c(C2CCN(c3cccc(OC)c3)CC2)oc2cc([C@@H](CC(=O)O)C3CC3)ccc12 (some centres unmarked) [Compound 413]	100 to 500	††† (Efficacy (%) > 150)
	COc1cccc(N2CCC(c3oc4cc([C@@H](CC(=O)O)C5CC5)ccc4c3-c3nnc(C(C)(C)C)o3)CC2)c1 [Compound 125]	10 to 100	†† (150 ≥ Efficacy (%) > 100)
	COc1cccc(N2CCC(c3oc4cc(C(CC(=O)O)C5CC5)ccc4c3-c3cc(C(C)(C)C)on3)CC2)c1 (centres unmarked) [Compound 114]	10 to 100	†† (150 ≥ Efficacy (%) > 100)
	COc1cccc(N2CCC(c3oc4cc([C@@H](CC(=O)O)C5CC5)ccc4c3-c3ccc(OC(C)C)cc3)CC2)c1 [Compound 33]	10 to 100	†† (150 ≥ Efficacy (%) > 100)
	COc1cccc(N2CCC(c3oc4cc([C@@H](CC(=O)O)C5CC5)ccc4c3C(=O)Nc3cc(OC(F)(F)F)ccc3Cl)CC2)c1 [Compound 277]	> 500	††††
	CC(C)(C)n1cc(-c2c(C3CCN(c4ccc5c(c4)OCO5)CC3)oc3cc([C@@H](CC(=O)O)C4CC4)ccc23)cn1 [Compound 97]	10 to 100	†† (150 ≥ Efficacy (%) > 100)
	COc1cccc(N2CCC(c3oc4cc(C(CC(=O)O)C5CC5)ccc4c3C(=O)Nc3ccc(F)cc3F)CC2)c1 (centres unmarked) [Compound 255]	100 to 500	†† (150 ≥ Efficacy (%) > 100)
	COc1ccc(F)c(N2CCC(c3oc4cc(C(CC(=O)O)C5CC5)ccc4c3C(=O)NC(C)(C)C)CC2)c1 (centres unmarked) [Compound 305]	100 to 500	†† (150 ≥ Efficacy (%) > 100)
65	Cc1cc(OCCCS(C)(=O)=O)cc(C)c1-c1cccc(COc2ccc3c(c2)OC[C@H]3CC(=O)O)c1 [TAK875, reference compound]		
	COc1cccc(N2CCC(c3oc4cc([C@@H](CC(=O)O)C5CC5)ccc4c3C(=O)N(C)c3cc(C(F)(F)F)ccc3Cl)CC2)c1 [Compound 281]	100 to 500	†† (150 ≥ Efficacy (%) > 100)

Efficacy (%) (numeric values of positive controls)	Structure (SMILES)	EC50 [nM]	Efficacy (%) (class symbols)
	COc1cccc(N2CCC(c3oc4cc([C@@H](CC(=O)O)C5CC5)ccc4c3-c3csc(C(C)C)n3)CC2)c1 [Compound 107]	100 to 500	††† (Efficacy (%) > 150)
	COc1ccc(F)c(N2CCC(c3oc4cc(C(CC(=O)O)C5CC5)ccc4c3-c3ccc(N(C)C(C)C)cc3)CC2)c1 (centres unmarked) [Compound 185]	100 to 500	†† (150 ≥ Efficacy (%) > 100)
	COc1ccc(F)c(N2CCC(c3oc4cc(C(CC(=O)O)C5CC5)ccc4c3-c3ccc(S(=O)(=O)C(C)C)cc3)CC2)c1 (centres unmarked) [Compound 183]	100 to 500	†† (150 ≥ Efficacy (%) > 100)
	COc1ccc(F)c(N2CCC(c3oc4cc([C@@H](CC(=O)O)C5CC5)ccc4c3-c3cccc(OC(F)(F)F)c3)CC2)c1 [Compound 173]	100 to 500	††† (Efficacy (%) > 150)
	COc1cccc(N2CCC(c3oc4cc([C@@H](CC(=O)O)C5CC5)ccc4c3C(=O)Nc3cc(OC)ccc3F)CC2)c1 [Compound 260]	10 to 100	††† (Efficacy (%) > 150)
	COc1cccc(N2CCC(c3oc4cc([C@@H](CC(=O)O)C5CC5)ccc4c3C(=O)Nc3ccccc3C(F)(F)F)CC2)c1 [Compound 238]	10 to 100	††† (Efficacy (%) > 150)
	COc1ccc(F)c(N2CCC(c3oc4cc([C@@H](CC(=O)O)C5CC5)ccc4c3-c3ccc(C)cc3)CC2)c1 [Compound 161]	100 to 500	† (100 ≥ Efficacy (%) > 50)
	COc1cccc(N2CCC(c3oc4cc([C@@H](CC(=O)O)C5CC5)ccc4c3C(C)OCc3ccco3)CC2)c1 (some centres unmarked) [Compound 420]	100 to 500	†† (150 ≥ Efficacy (%) > 100)
	COc1cccc(N2CCC(c3oc4cc(C(CC(=O)O)C5CC5)ccc4c3C(=O)Nc3cccc(Cl)c3)CC2)c1 (centres unmarked) [Compound 248]	100 to 500	†† (150 ≥ Efficacy (%) > 100)
	COc1ccc(F)c(N2CCC(c3oc4cc([C@@H](CC(=O)O)C5CC5)ccc4c3CCC(C)(C)C)CC2)c1 [Compound 389]	100 to 500	†† (150 ≥ Efficacy (%) > 100)
	C=C(C)c1ccc(-c2c(C3CCN(c4cccc(OC)c4)CC3)oc3cc(C(CC(=O)O)C4CC4)ccc23)cc1 (centres unmarked) [Compound 30]	100 to 500	†† (150 ≥ Efficacy (%) > 100)
	CCNC(=O)c1c(C2CCN(c3cc(OC)ccc3F)CC2)oc2cc(C(CC(=O)O)C3CC3)ccc12 (centres unmarked) [Compound 312]	100 to 500	† (100 ≥ Efficacy (%) > 50)
	COc1cccc(N2CCC(c3oc4cc(C(CC(=O)O)C5CC5)ccc4c3C(=O)Nc3c(F)cc(F)cc3F)CC2)c1 (centres unmarked) [Compound 288]	100 to 500	†† (150 ≥ Efficacy (%) > 100)
	CC(C)(C)c1ccc(-c2c(C3CCN(c4ccc5c(c4)OCO5)CC3)oc3cc([C@@H](CC(=O)O)C4CC4)ccc23)cc1 [Compound 213]	10 to 100	†† (150 ≥ Efficacy (%) > 100)
	COc1cccc(N2CCC(c3oc4cc(C(CC(=O)O)C5CC5)ccc4c3Cc3nnc(C(C)(C)C)o3)CC2)c1 (centres unmarked) [Compound 450]	100 to 500	† (100 ≥ Efficacy (%) > 50)
	COc1cccc(N2CCC(c3oc4cc([C@@H](CC(=O)O)C5CC5)ccc4c3C(=O)Nc3cc(C)ccc3F)CC2)c1 [Compound 253]	≤ 10	††† (Efficacy (%) > 150)
	CCC(OCC(C)(C)C)c1c(C2CCN(c3cccc(OC)c3)CC2)oc2cc([C@@H](CC(=O)O)C3CC3)ccc12 (some centres unmarked) [Compound 416]	10 to 100	†† (150 ≥ Efficacy (%) > 100)
	COc1cccc(N2CCC(c3oc4cc([C@@H](CC(=O)O)C5CC5)ccc4c3C(OCC(C)C)c3ccccc3F)CC2)c1 (some centres unmarked) [Compound 432]	10 to 100	††† (Efficacy (%) > 150)
	CC(C)(C)c1ccc(-c2c(C3CCN(c4ccc5ccoc5c4)CC3)oc3cc(C(CC(=O)O)C4CC4)ccc23)cc1 (centres unmarked) [Compound 209]	100 to 500	†† (150 ≥ Efficacy (%) > 100)

From patent publication EP4682145A1, “BENZOHETEROCYCLIC COMPOUND, AND PREPARATION METHOD THEREFOR AND USE THEREOF” (Cascade Pharmaceuticals, Inc., priority 2023, dated 2024)
